The subject of data set [1] is C. albicans SC5314. Description: MIC of 19ak in the presence of H2O2. Format: cell-based. As to conditions: Candida albicans, read-out: MIC against C. albicans SC5314 (Table S3). On the procedure: Influence of oxidant or antioxidant molecules on 19ak activity. The MIC of
19ak in the presence of 1–2 mM H2O2 was measured using the broth microdilution
assay as described above. […]

Data set [2] concerns C. albicans SC5314 cells. Nature of the data set: Intracellular ATP production. Format: cell-based, Candida albicans. The note with it: 0.125 μg/mL, compared with control cells. The procedure: (§1) albicans SC5314 cells (1 × 10^6 cells/mL) were challenged with various doses of 19ak and incubated at 30°C for 6 h, followed by staining with 20 μM Rh123 for 30 min in the dark and detection by flow cytometry (Becton Dickinson, CA, USA).
(§2) Measurement of intracellular ATP production. To explore whether 19ak affects intracellular ATP content by damaging mitochondria, we treated C. albicans SC5314 cells (1 × 10^6 cells/mL) with different doses of 19ak. After lysing the cells in lysis buffer, ATP levels were measured with the ATP Assay Kit (Beyotime, Haimen, China) according to the manufacturer's instructions. Cellular protein concentrations were determined using a BCA Protein Assay Kit (Beyotime, Haimen, China). The intracellular ATP content was calculated by referring to a standard curve and normalized using the protein content of each sample for expression as nmol/mg […]
(§3) ROS production assay. […] The fluorescence intensity was then measured by flow cytometry, and the data were analyzed with Win MDI 2.9 software.
(§4) Influence of oxidant or antioxidant molecules on 19ak activity. […] The effects of NAC, Tu and DTT on the growth of 19ak treated fungal cells were measured using a time-growth curve. […] A microplate reader was used to measure the absorbance at600 nm, and the growth curves were plotted.

Data set [3] concerns C. albicans SC5314 cells. Description: Mitochondrial membrane potential by Rh123. As to conditions: 0.125-1 μg/mL, 30°C, 6 h. Format: cell-based, Candida albicans. The procedure: the fluorescent complex […] (CTF) is commonly used to indicate the intensity of microbial respiration. C. albicans SC5314 treated with 19ak was stained with 1 mM CTC for 30 min, followed by flow cytometry analysis of respiratory activity based on fluorescence intensity. Images of cells were obtained using a fluorescence microscope (IX71, Olympus, Tokyo, Japan). The Cell Counting Kit-8 (CCK-8) assay is used to measure the dehydrogenase activity in the mitochondria of C. albicans or mammalian cells. C. albicans SC5314 (5 × 10^6 cells/mL in RPMI1640 medium) were treated with different concentrations of 19ak in 96-well plates at 30°C for 12 h or 48 h. […] After an additional 2 h of incubation, OD450 in each well was detected with a microplate reader. […]
Mitochondrial isolation and detection of mitochondrial respiratory chain complex activity. […] The activities of mitochondrial respiratory chain complexes I-IV were determined by using the Micro Mitochondrial Respiratory Chain Complex Activity Assay Kit (Solarbio, Beijing, China). The concentration of protein was determined using the BCA Protein Assay Kit (Beyotime, Haimen, China).
Mitochondrial complex activity was expressed as nmol/min/mg protein. […]
Measurement of intracellular ATP production. […] Cellular protein concentrations were determined using a BCA Protein Assay Kit (Beyotime, Haimen, China). […]

Data set [4] concerns G. mellonella. Nature of the data set: Toxicity of 19ak in G. mellonella larvae. The class given is in vivo, Galleria mellonella. As to conditions: 10 μg per larva, 4 days. On the procedure: Larvae of normal size and in good condition were injected with 10 μL of 19ak (1 mg/mL) or PBS. The survival of the larvae was monitored daily for 4 days.
In data set [5] the test system is C. albicans SC5314. Description: Time-growth curve with antioxidants. The note with it: SC medium, 5 mM NAC or 5 mM Tu, 0.25 or 0.5 μg/mL 19ak, 15 h. Format: cell-based, Candida albicans. On the procedure:
as §1, §2, §3, §4

For data set [6], the system named is C. albicans CAF2-1, zap1Δ/Δ, zap1Δ/Δ+ pZAP1. Nature of the data set: Growth of zap1 mutant, complemented and wild-type strains under 19ak. The class given is cell-based, Candida albicans. The procedure:
FIG 6 Effect of 19ak on ribosome biogenesis in C. albicans. (A to C) The wild strain CAF2-1, the mutant strain zap1Δ/Δ and its complemented strain zap1Δ/Δ+ pZAP1 were adjusted to 1 × 10^5 cells/mL in RPMI 1640 medium and treated with 0.25 or 0.5 μg/mL 19ak for 15 h at 30°C. Cell growth was monitored by detecting the optical density at 600 nm in a microplate reader. (A) Cells that were not treated with 19ak as a control. (B) Cells treated with 0.25 μg/mL 19ak. (C) Cells treated with 0.5 μg/mL 19ak. Each point represents the mean of three replicates. The OD600 values at the final detection point were used to analyze significant differences. (D) C. albicans zap1Δ/Δ and its complemented strain zap1Δ/Δ + pZAP1 were treated with 0.5 μg/mL 19ak for 6 h at 30°C. The transcription levels of several genes associated with ribosomal biosynthesis were determined by qPCR. The bars represent means ± SD from three independent experiments. *, P < 0.05; **, P < 0.01; ***, P < 0.001. ns, nonsignificance. (E) qPCR analysis of the expression of genes associated with iron and zinc homeostasis after TPEN treatment. C. albicans SC5314 was cultured in RPMI 1640 medium and treated with 0.05 μg/mL or 0.2 μg/mL TPEN for 6 h at 30°C for qPCR analysis.

Structures are written as SMILES. Like-named read-outs stand apart in the source and are kept apart here.

Take `C/C(=N\NC(=S)N(C)C)c1ccccn1` [Compound 19ak]: the minimum inhibitory concentration (MIC) in data set [1] (SC5314, +1 mM H2O2) amounted to 0.25 µg/mL; in data set [1] (SC5314, +2 mM H2O2) it was 0.5 µg/mL; in data set [1] (SC5314, without H2O2), 0.125 µg/mL. Further, the “Decrease of intracellular ATP levels” value in data set [2] is listed as “approximately 65.8%”. In addition, in data set [3], the “Mitochondrial membrane potential (mtΔψ), Rh123” value is given as “decrease in mtΔψ”. Moreover, the “Survival of uninfected larvae (toxicity)” value in data set [4] is “all treated larvae were still alive”. In data set [5], the “Effect of antioxidants NAC and Tu on antifungal activity (cell growth monitoring)” value is “greatly enhanced the antifungal activity”. Further, in data set [6] (100 μM Zn^2+ added), the “Activity against CAF2-1, zap1Δ/Δ and complemented strain with exogenous Zn^2+” value is “lost the activities”. Further, the “Growth of zap1 mutant versus complemented strain” value in data set [6] (0.25 or 0.5 μg/mL, 15 h, 30°C) is given as “more severe growth defects”.

The record behind these values is publication PMC9241695, “Selective Metal Chelation by a Thiosemicarbazone Derivative Interferes with Mitochondrial Respiration and Ribosome Biogenesis in Candida albicans” (Microbiology Spectrum, 2022).
